Assay results taken from patent publication US20200063108A1, “THREE-DIMENSIONAL TISSUE STRUCTURES” (Dana-Farber Cancer Institute, Inc., priority 2017, published 2020).

Tests used:
Format in all cases: cell-based
MDA-MB-231 2-D cultures = assay: Longitudinal exposure of MDA-MB-231 2-D cultures to cytotoxic drugs; settings: 100 nM, 2D culture
Experimental: (§1) FIG. 1: Right: Longitudinal exposure of MDA-MB-231 3-D organoids and 2-D cultures to cytotoxic drugs (100 nM). […] Left: H&E staining of day-15 drug-refractory MDA-MB-231 organoids and respective control.
(§2) Viability is determined by methods known in the art. A preferred method to determine cell viability is the measurement of bioluminescence in cells stably transfected with the luciferase expression vector upon addition of the luciferase substrate. An alternative method to determine cell viability is the measurement of fluorescence in cells stably transfected with the expression vectors of fluorescent protein (e.g. GFP or RFP). Alternatively, the cell viability can be measured by ATP-based assays; for example the Cell-Titer Glow assay. Alternatively, the cell viability can be measured by colorimetric assays, for example the MTT assay. Alternatively, cell viability can be measured by conventional or automated microscopy methods as determined by the size and shape of the cancer organoids. Alternatively, cell viability can be measured by assays measuring mitochondrial function such as the BH3 profiling assay. […]

[1] = test system: breast cancer patient-derived 3-D organoids; assay: Regrowth of breast cancer patient-derived 3-D organoids after docetaxel washout; settings: 100 nM for 10 days, then 8 weeks after washout
Experimental: FIG. 11: Breast cancer patient-derived 3-D organoids treated with DMSO-control (left) or 100 nM Docetaxel (center) for 10 days, and 8 weeks after docetaxel washout (right).

MDA-MB-231 3-D organoids = assay: Longitudinal exposure of MDA-MB-231 3-D organoids to cytotoxic drugs; settings: 100 nM, 3D culture spheroids
Experimental: as §1, §2

[2] = test system: drug-refractory prostate cancer 3-D organoids; assay: Re-exposure of drug-refractory prostate cancer 3-D organoids to afatinib and vinblastine; settings: re-exposed to afatinib and vinblastine (100 nM) 5 days after first exposure drug-washout
Experimental: FIG. 10: Afatinib-refractory and vinblastine-refractory prostate cancer 3-D organoids longitudinally exposed to afatinib and vinblastine (100 nM) 5 days after the first exposure drug-washout.

[3] = test system: prostate cancer patient-derived 3-D organoids; assay: Exposure of prostate cancer patient-derived 3-D organoids to cytotoxic drugs; settings: 100 nM, 3D conditions with Wnt-stimulator R-spondin, in vitro
Experimental: FIG. 2. Left: Exposure of prostate cancer patient-derived 3-D organoids, cultured in 3D conditions in the presence of Wnt-stimulator R-spondin, to cytotoxic drugs (100 nM; vinblastine highlighted with red) and validation of vinblastine response in the respective patient-derived xenograft (PDX) model. […] Right: Histological similarities of in-vitro vs. in-vivo drug-refractory malignant foci.
as §2

| Structure (SMILES) | cell killing (viability curve) (MDA-MB-231 2-D cultures) | regrowth of drug-refractory organoids after drug washout [1] | cell killing (viability curve) (MDA-MB-231 3-D organoids) | cross-resistance of organoids refractory to the named drug [2] | cell viability curve [3] |
| --- | --- | --- | --- | --- | --- |
| CC(=O)O[C@@]12CO[C@@H]1C[C@H](O)[C@@]1(C)C(=O)[C@H](O)C3=C(C)[C@@H](OC(=O)[C@H](O)[C@@H](NC(=O)OC(C)(C)C)c4ccccc4)C[C@@](O)([C@@H](OC(=O)c4ccccc4)[C@H]21)C3(C)C [docetaxel] | kills virtually all the cells | ability of drug-refractory organoid to regenerate fully-grown organoids | only a fraction of the cells | – | – |
| CC[C@]1(O)C[C@@H]2CN(CCc3c([nH]c4ccccc34)[C@@](C(=O)OC)(c3cc4c(cc3OC)N(C)[C@H]3[C@@](O)(C(=O)OC)[C@H](OC(C)=O)[C@]5(CC)C=CCN6CC[C@]43[C@@H]65)C2)C1 [vinblastine] | – | – | – | cross-resistance | cell viability curve plateauing |
